In patent publication US8338465B2, “Cyclic carboxylic acid rhodanine derivatives for the treatment and prevention of tuberculosis” (priority 2006, dated 2012):
Like-named read-outs stand apart in the source and are kept apart here.

Target: T1, dihydrolipoamide acyltransferase (DlaT) (Mycobacterium tuberculosis, UniProt P9WIS7)
T1 sequence (P9WIS7 1-553): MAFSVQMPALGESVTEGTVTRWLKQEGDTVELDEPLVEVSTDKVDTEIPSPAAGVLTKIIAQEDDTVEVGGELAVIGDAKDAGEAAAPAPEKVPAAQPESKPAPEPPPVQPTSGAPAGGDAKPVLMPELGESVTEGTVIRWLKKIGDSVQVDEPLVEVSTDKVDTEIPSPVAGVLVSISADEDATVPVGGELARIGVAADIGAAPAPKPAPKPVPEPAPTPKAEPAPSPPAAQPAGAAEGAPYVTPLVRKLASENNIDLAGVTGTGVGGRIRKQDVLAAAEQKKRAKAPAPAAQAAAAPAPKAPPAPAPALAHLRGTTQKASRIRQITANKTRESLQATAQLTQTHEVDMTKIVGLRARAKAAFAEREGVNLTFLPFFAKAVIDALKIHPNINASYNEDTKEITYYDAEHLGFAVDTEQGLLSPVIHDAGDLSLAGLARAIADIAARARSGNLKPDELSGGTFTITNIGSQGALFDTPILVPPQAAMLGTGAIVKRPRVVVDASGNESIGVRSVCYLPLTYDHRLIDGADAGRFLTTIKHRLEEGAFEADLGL
Test: DlaT inhibition (Dlat IC50); DTNB peroxidase assay with Lpd, DlaT and AhpD
Type: biochemical

[1] = Table 1, Compounds A1 to A294, read-out: Dlat IC50 category
[2] = Dlat IC50 category, Table 20, Prodrugs (Compounds T1 to T8)

SMILES | IC50 [1] | IC50 (Dlat IC50 category) | further results
O=C(O)c1cc(C(=O)O)cc(N2C(=O)C(=Cc3ccc(-c4ccccc4F)o3)SC2=S)c1 [Compound A231] | > 41 µM |  | 
CCCCc1ccc(-c2ccc(C=C3SC(=S)N(c4cc(C(=O)O)ccc4F)C3=O)o2)cc1 [Compound A264] | < 10 µM |  | 
COc1ccccc1-c1ccc(C=C2SC(=S)N(CC(=O)O)C2=O)o1 [Compound B88] |  | 11 to 40 µM | 
O=C(O)CCN1C(=O)C(=Cc2ccc(-c3ccccc3C(F)(F)F)o2)SC1=S [Compound B4] |  | 11 to 40 µM | 
O=C(O)C(c1ccccc1)N1C(=O)C(=Cc2ccc(-c3cc(Cl)ccc3Cl)o2)SC1=S (centres unmarked) [Compound B46] |  | < 10 µM | 
O=C(O)CCN1C(=O)C(=Cc2ccc(-c3ccc(Cc4ccccc4)cc3)o2)SC1=S [Compound B31] |  | < 10 µM | 
O=C(OCC(CO)CO)c1cccc(N2C(=O)C(=Cc3ccc(-c4ccccc4Cl)o3)SC2=S)c1 [Compound T4, 3-{5-[1-[5-(2-Chloro-phenyl)-furan-2-yl]-methylidene]-4-oxo-2-thioxo-thiazolidin-3-yl}-benzoic acid 3-hydroxy-2-hydroxymethyl-propyl ester] |  |  | IC50 [2]: 11 to 40 µM
CCCCOc1ccc(-c2ccc(C=C3SC(=S)N(C4CCC(C(=O)O)CC4)C3=O)o2)cc1 (centres unmarked) [Compound C57, 4-{5-[1-[5-(4-butoxy-phenyl)-furan-2-yl]-methylidene]-4-oxo-2-thioxo-thiazolidin-3-yl}-cyclohexanecarboxylic acid] |  | 11 to 40 µM | 
O=C(O)[C@@H](c1ccccc1)N1C(=O)C(=Cc2ccc(-c3ccc(Cl)cc3)o2)SC1=S [Compound B36] |  | < 10 µM | 
Cc1ccc(-c2ccc(C=C3SC(=S)N(C4CCCC(C(=O)O)C4)C3=O)o2)cc1 (centres unmarked) [Compound C14, 3-{4-oxo-2-thioxo-5-[1-(5-p-tolyl-furan-2-yl)-methylidene]-thiazolidin-3-yl}-cyclohexanecarboxylic acid] |  | < 10 µM | 
O=C(O)C(Cc1ccc(O)c(O)c1)N1C(=O)C(=Cc2ccc(-c3cccc(C(F)(F)F)c3)o2)SC1=S (centres unmarked) [Compound B55] |  | < 10 µM | 
CC(C)(C)c1ccc(-c2ccc(C=C3SC(=S)N(c4cccc(C(=O)O)c4)C3=O)o2)cc1 [Compound A58] | < 10 µM |  | 
COc1ccc(-c2ccc(C=C3SC(=S)N(C(C)C(=O)O)C3=O)o2)cc1Cl (centres unmarked) [Compound B113] |  | < 10 µM | 
Cc1ccc(-c2ccc(C=C3SC(=S)N(c4cccc(C(=O)O)c4)C3=O)cc2)cc1 [Compound A246] | < 10 µM |  | 
CSc1ccccc1-c1ccc(C=C2SC(=S)N(c3cc(C(=O)O)ccc3F)C2=O)o1 [Compound A186] | < 10 µM |  | 
O=C(O)C(Cc1ccc(O)cc1)N1C(=O)C(=Cc2ccc(-c3cc(Cl)ccc3Cl)o2)SC1=S (centres unmarked) [Compound B62] |  | < 10 µM | 
O=C(O)c1ccc(Cl)c(N2C(=O)C(=Cc3ccc(-c4cccc(C(F)(F)F)c4)o3)SC2=S)c1 [Compound A73] | < 10 µM |  | 
O=C(O)c1ccc(N2C(=O)C(=Cc3ccc(-c4ccc(Oc5ccccc5)cc4)o3)SC2=S)cc1 [Compound A14] | 11 to 40 µM |  | 
COc1ccccc1-c1ccc(C=C2SC(=S)N(c3cccc(C(=O)O)c3C)C2=O)o1 [Compound A142] | < 10 µM |  | 

SMILES | IC50 [1] | IC50 (Dlat IC50 category) | further results
O=C(O)c1cccc(N2C(=O)C(=Cc3ccc(-c4ccc(Br)cc4)o3)SC2=S)c1 [Compound A123] | 11 to 40 µM |  | 
O=C(O)c1ccc(F)c(N2C(=O)C(=Cc3ccc(-c4ccc(OCc5ccccc5)cc4)o3)SC2=S)c1 [Compound A220] | 11 to 40 µM |  | 
O=C(O)CN1C(=O)C(=Cc2ccc(-c3ccc(C(=O)c4ccccc4)cc3)o2)SC1=S [Compound B69] |  | 11 to 40 µM | 
CC(C)C(C(=O)O)N1C(=O)C(=Cc2ccc(-c3ccc(Cl)c(Cl)c3)o2)SC1=S (centres unmarked) [Compound B111] |  | < 10 µM | 
NS(=O)(=O)c1cccc(N2C(=O)C(=Cc3ccc(-c4cccc(C(F)(F)F)c4)o3)SC2=S)c1 [Compound A26] | 11 to 40 µM |  | 
Cc1c(C(=O)O)cccc1N1C(=O)C(=Cc2ccc(-c3ccc(C(C)(C)c4ccccc4)cc3)o2)SC1=S [Compound A98] | < 10 µM |  | 
Cc1ccc(-c2ccc(C=C3SC(=S)N(c4cc(C(=O)O)ccc4F)C3=O)cc2)cc1 [Compound A247] | 11 to 40 µM |  | 
O=C(O)C(Cc1ccc(O)c(O)c1)N1C(=O)C(=Cc2ccc(-c3cc(C(F)(F)F)ccc3Cl)o2)SC1=S (centres unmarked) [Compound B65] |  | < 10 µM | 
CSc1ccccc1-c1ccc(C=C2SC(=S)N(c3ccc(F)c(C(=O)O)c3)C2=O)o1 [Compound A282] | < 10 µM |  | 
O=C(O)C1CCCC(N2C(=O)C(=Cc3ccc(-c4ccccc4-c4ccccc4)o3)SC2=S)C1 (centres unmarked) [Compound C70, 3-{5-[1-(5-biphenyl-2-yl-furan-2-yl)-methylidene]-4-oxo-2-thioxo-thiazolidin-3-yl}-cyclohexanecarboxylic acid] |  | < 10 µM | 
CC(C(=O)O)N1C(=O)C(=Cc2ccc(-c3cccc(Cl)c3)o2)SC1=S (centres unmarked) [Compound B95] |  | 11 to 40 µM | 
O=C(O)c1cccc(N2C(=O)C(=Cc3ccc(-c4ccc(F)cc4F)o3)SC2=S)c1 [Compound A153] | < 10 µM |  | 
CCCCOc1ccc(-c2ccc(C=C3SC(=S)N(c4cccc(C(=O)O)c4)C3=O)o2)cc1 [Compound A226] | > 41 µM |  | 
O=C(O)CCc1cccc(N2C(=O)C(=Cc3ccc(-c4ccc(Cl)cc4)o3)SC2=S)c1 [Compound A120] | < 10 µM |  | 
O=C(OCCN(CCO)CCO)c1cccc(N2C(=O)C(=Cc3ccc(-c4ccccc4Cl)o3)SC2=S)c1 [Compound T8, 3-{5-[1-[5-(2-Chloro-phenyl)-furan-2-yl]-methylidene]-4-oxo-2-thioxo-thiazolidin-3-yl}-benzoic acid 2-[bis-(2-hydroxy-ethyl)-amino]-ethyl ester] |  |  | IC50 [2]: 41 to 80 µM
O=C(O)CCCCCN1C(=O)C(=Cc2ccc(-c3ccc(-c4ccccc4)cc3)o2)SC1=S [Compound B18] |  | < 10 µM | 
CC(C)c1ccc(-c2ccc(C=C3SC(=S)N(c4ccc(O)c(C(=O)O)c4)C3=O)o2)cc1 [Compound A47] | < 10 µM |  | 
O=C(O)C(c1ccccc1)N1C(=O)C(=Cc2ccc(-c3ccccc3Cl)o2)SC1=S (centres unmarked) [Compound B1] |  | < 10 µM | 
C#Cc1ccc(-c2ccc(C=C3SC(=S)N(c4cccc(C(=O)O)c4)C3=O)o2)cc1 [Compound A126] | 11 to 40 µM |  | 

SMILES | IC50 [1] | IC50 (Dlat IC50 category) | further results
CC(=O)NS(=O)(=O)c1ccc(N2C(=O)C(=Cc3ccc(-c4cccc(C(F)(F)F)c4)o3)SC2=S)cc1 [Compound A31] | < 10 µM |  | 
CC(C)Cc1ccc(-c2ccc(C=C3SC(=S)N(C4CCCC(C(=O)O)C4)C3=O)o2)cc1 (centres unmarked) [Compound C4, 3-{5-[1-[5-(4-isobutyl-phenyl)-furan-2-yl]methylidene]-4-oxo-2-thioxo-thiazolidin-3-yl}-cyclohexanecarboxylic acid] |  | < 10 µM | 
CC(C)(C)c1ccc(-c2ccc(C=C3SC(=S)N(c4ccc(O)c(C(=O)O)c4)C3=O)o2)cc1 [Compound A59] | < 10 µM |  | 
O=C(O)c1cc(N2C(=O)C(=Cc3ccc(-c4cc(Cl)ccc4Cl)o3)SC2=S)ccc1O [Compound A41] | 11 to 40 µM |  | 
O=C(O)CCN1C(=O)C(=Cc2cccc(-c3ccccc3Cl)n2)SC1=S [Compound B7] |  | 41 to 80 µM | 
Cc1ccc(C(=O)O)cc1N1C(=O)C(=Cc2ccc(-c3ccccc3Cl)o2)SC1=S [Compound A78] | < 10 µM |  | 
Cc1cc(N(C)C)ccc1-c1ccc(C=C2SC(=S)N(c3cc(C(=O)O)ccc3F)C2=O)o1 [Compound A183] | 11 to 40 µM |  | 
O=C(O)c1cccc(N2C(=O)C(=Cc3ccc(-c4cccc(-c5ccccc5)c4)o3)SC2=S)c1 [Compound A202] | < 10 µM |  | 
O=C(O)c1cc(N2C(=O)C(=Cc3ccc(-c4cccc(C(F)(F)F)c4)o3)SC2=S)cc([N+](=O)[O-])c1 [Compound A89] | 11 to 40 µM |  | 
O=C(O)c1ccc(N2C(=O)C(=Cc3ccc(-c4ccc(Cl)cc4)o3)SC2=S)cc1 [Compound A20] | < 10 µM |  | 
O=C(O)C(Cc1ccccc1)N1C(=O)C(=Cc2ccc(-c3ccc(Cl)cc3Cl)o2)SC1=S (centres unmarked) [Compound B45] |  | < 10 µM | 
O=C(O)C1CCCC(N2C(=O)C(=Cc3ccc(-c4ccc(Cl)cc4)o3)SC2=S)C1 (centres unmarked) [Compound C56, 3-{5-[1-[5-(4-chloro-phenyl)-furan-2-yl]-methylidene]-4-oxo-2-thioxo-thiazolidin-3-yl}-cyclohexanecarboxylic acid] |  | < 10 µM | 
O=C(O)c1ccc(-c2ccc(C=C3SC(=S)N(c4ccc(O)cc4)C3=O)o2)cc1 [Compound A291] | < 10 µM |  | 
O=C(O)c1cccc(N2C(=O)C(=Cc3ccc(-c4ccccc4OC(F)(F)F)o3)SC2=S)c1 [Compound A70] | < 10 µM |  | 
CSc1ccc(-c2ccc(C=C3SC(=S)N(C4CCCC(C(=O)NC(CO)CO)C4)C3=O)o2)cc1 (centres unmarked) [Compound U8, 3-{5-[1-[5-(4-Methylsulfanyl-phenyl)-furan-2-yl]-methylidene]-4-oxo-2-thioxo-thiazolidin-3-yl}-cyclohexanecarboxylic acid (2-hydroxy-1-hydroxymethyl-ethyl)-amide] |  |  | IC50 (Dlat IC50 category, Table 21, Prodrugs (Examples U1 to U10)): 41 to 80 µM
CCc1ccccc1-c1ccc(C=C2SC(=S)N(c3cc(C(=O)O)ccc3F)C2=O)o1 [Compound A250] | < 10 µM |  | 
Cc1ccc(-c2ccc(C=C3SC(=S)N(C4CCC(C(=O)O)CC4)C3=O)o2)c(F)c1 (centres unmarked) [Compound C46, 4-{5-[1-[5-(2-fluoro-4-methyl-phenyl)-furan-2-yl]-methylidene]-4-oxo-2-thioxo-thiazolidin-3-yl}-cyclohexanecarboxylic acid] |  | < 10 µM | 
COc1ccc(-c2ccc(C=C3SC(=S)N(c4cc(C(=O)O)ccc4F)C3=O)o2)c(OC)c1 [Compound A168] | < 10 µM |  | 
